“Also recorded” adds a separate entry of the source. Where two headings read alike, the source gives them in different places. Ends that are not written are not given here.

Experiment [1] has as its target Toxoplasma gondii apical membrane antigen 1 (TgAMA1) (Toxoplasma gondii). In words: ITC; TgAMA1 or TgAMA1ΔDIIloop in the sample cell (10 to 16 μM for nanomolar affinity, 35 to 75 μM for micromolar affinity), TRX-fused peptides (110 to 180 μM or 360 to 1180 μM) added in 17 injections of 2 μL; 25 °C; HBS (20 mM HEPES pH 7.5, 150 mM NaCl); one-site model. Background: Isothermal titration calorimetry measures the heat released or taken up as one component is titrated into another.

Experiment [2] concerns the target TgAMA1ΔDIIloop (TgAMA1 with the mobile portion of the DII loop replaced with a short Gly-Ser linker) (Toxoplasma gondii) (UniProt B6KAM0). Described as above.
Experiment [3] concerns TgAMA1ΔDIIloop. The experiment in a line: Isothermal titration calorimetry of TRX-fused RON2D3 peptides titrated into TgAMA1ΔDIIloop (DII loop replaced by Gly-Ser linker). Format: binding, Toxoplasma gondii. The settings on record: for binding to TgAMA1ΔDIIloop (in words) / Kd / -TΔS / ΔG / Molar Ratio (RON2/AMA1) / ΔH: ITC, 25 °C; for binding to TgAMA1ΔDIIloop (in words) / -TΔS / ΔG / Molar Ratio (RON2/AMA1) / ΔH: HBS pH 7.5; for Kd / -TΔS / ΔG / Molar Ratio (RON2/AMA1) / ΔH: TgAMA1ΔDIIloop, TRX-fused peptides; for Kd: HBS (20 mM HEPES pH 7.5, 150 mM NaCl), one-site model, representative of at least two independent experiments; for Kd / Molar Ratio (RON2/AMA1) / ΔH: single experiment; for Molar Ratio (RON2/AMA1) / ΔH: representative of at least two. From the text: A sequence encoding the mature ectoplasmic region of TgAMA1 (amino acids 64 to 484, TGME49_255260 [24]) with the twenty residues of the DII loop disordered in the TgAMA1-TgRON2D3 co-structure replaced by a seven residue Gly-Ser linker (TgAMA1ΔDIIloop) was synthesized and subcloned into a modified pAcGP67b vector (Pharmingen) with a C-terminal thrombin cleavage site and hexahistidine tag. TgAMA1ΔDIIloop encoding virus for insect cell protein production was generated and amplified using established protocols. Following a 65 hr infection the supernatant was harvested, concentrated, and TgAMA1ΔDIIloop was purified by nickel batch binding as previously described. The hexahistidine tag was removed by thrombin cleavage and the protein was further purified by size exclusion chromatography (SEC) (Superdex 16/60 75) in HEPES buffered saline (HBS: 20 mM HEPES pH 7.5, 150 mM NaCl).
(§1) For ITC experiments, TgAMA1 was produced and purified as previously reported. Thioredoxin fusions of TgRON2D3, TgRON2L1D3, TgRON2L2D3, EtRON2D3 and PfRON2D3 were produced in E. coli BL21 cells and purified by nickel-affinity and SEC.
(§2) Purified TgAMA1, TgAMA1ΔDIIloop, and TRX fusions of TgRON2D3, TgRON2L1D3 TgRON2L2D3, EtRON2D3, and PfRON2D3 were dialyzed against HBS at 4 °C. All ITC experiments were carried out at 25 °C on a MicroCal iTC200 instrument (GE Healthcare). […] Data were processed using Origin software (MicroCal) and the dissociation constants (Kd) were determined using a one-site model. Values are derived from a single experiment, but are representative of at least two independent experiments.

The subject of experiment [4] is TgAMA1ΔDIIloop. The experiment in a line: Native gel electrophoresis of TgAMA1ΔDIIloop co-purified with EtRON2D3. It is filed as binding, Toxoplasma gondii. Conditions: 8–25% gradient native gel, HBS, Coomassie Brilliant Blue; sample co-purified with EtRON2D3. An excerpt:
A sequence encoding a portion of EtRON2D3 (amino acids 1262 to 1297, ETH_00012760) was synthesized and subcloned into a modified pET32a vector (Novagen) incorporating N-terminal hexahistidine and thioredoxin (TRX) tags with a thrombin cleavage site. The fusion protein was produced in E. coli BL21 cells. For crystallization, EtRON2D3-TRX was cleaved to remove the fusion tags and co-purified with TgAMA1ΔDIIloop by SEC in HBS followed by anion exchange chromatography using a Source 30Q column (20 mM HEPES pH 8.0, 10 mM NaCl; elution gradient with 20 mM HEPES pH 8.0, 1 M NaCl) to remove residual TRX tag.
Purified TgAMA1ΔDIIloop and co-purified TgAMA1ΔDIIloop-EtRON2D3 protein samples in HBS were run on an 8–25% gradient native gel using the PhastGel system (GE Healthcare), and protein bands were visualized with Coomassie Brilliant Blue staining.

Another experiment has as its system TgAMA1. In words: Isothermal titration calorimetry of TRX-fused RON2D3 peptides titrated into TgAMA1. The settings on record: ITC, 25 °C; for -TΔS / ΔG / Kd / Molar Ratio (RON2/AMA1) / ΔH: TgAMA1, TRX-fused peptides; for Molar Ratio (RON2/AMA1) / ΔH: representative of at least two. Format: binding, Toxoplasma gondii. As for the experimental part: as §1, §2
The test system of another experiment is TgAMA1 or TgAMA1ΔDIIloop. In words: Isothermal titration calorimetry, TRX negative control. The settings on record: ITC, 25 °C, HBS pH 7.5. Format: binding, Toxoplasma gondii. As to the method:
as §2

As to “EtRON2D3-TRX (Eimeria tenella RON2 domain 3 peptide, thioredoxin fusion) (from UniProt U6KQJ2 1262-1297)”, the values for the Kd in experiment [1] and in experiment [2] were 2200 nM and below 8 nM, respectively.

Consider “EtRON2D3: a portion of EtRON2D3 (amino acids 1262 to 1297, ETH_00012760), Eimeria tenella RON2 peptide (thioredoxin-DITQHLNDSGLGPAVECLENLVVGPVCPAAVVAPAV; not fully specified (bridges); also: disulfide partially formed)”, for which, in the experiment with TgAMA1ΔDIIloop [3], the “binding to TgAMA1ΔDIIloop (in words)” value was “bound both TgRON2D3 and EtRON2D3 with high affinity; also recorded: significantly tighter binding to TgAMA1ΔDIIloop relative to TgAMA1”; binding was put at a Kd of 8 ± 3.1 nM; the “-TΔS” value was -0.1 kcal/mol; the ΔG is -11.1 kcal/mol. In the experiment with TgAMA1ΔDIIloop [3], the “Molar Ratio (RON2/AMA1)” value is reported as 0.96 ± 0.01 and the ΔH is -11.0 ± 0.1 kcal/mol. In addition, in the experiment with TgAMA1ΔDIIloop [3] (listed as EtRON2), the “binding to TgAMA1ΔDIIloop (in words)” value is recorded as “bound with high affinity to TgAMA1ΔDIIloop”. In addition, the “fold tighter binding to TgAMA1ΔDIIloop relative to TgAMA1” value with TgAMA1ΔDIIloop [3] (ratio of ITC Kd, TgAMA1 (2.2 μM) vs TgAMA1ΔDIIloop (8.0 nM)) is “approximately 275 fold”. In addition, in the experiment with TgAMA1ΔDIIloop [4], the “native PAGE migration / retention on TgAMA1ΔDIIloop” value is recorded as “altered migration for the sample co-purified with EtRON2D3”. In the experiment with TgAMA1 (HBS pH 7.5), the “binding to TgAMA1 (in words)” value was “bound both TgRON2D3 and EtRON2D3 but only the former with high affinity”; the “-TΔS” value is reported as -3.0 kcal/mol; the ΔG is -7.7 kcal/mol. Besides, in the experiment on TgAMA1 (HBS pH 7.5, listed as EtRON2), the “binding to TgAMA1 (in words)” value is “showed only weak binding to TgAMA1”. The Kd on TgAMA1 (HBS pH 7.5, rounded value, read-out: affinity (Kd)) was 2200 nM. Further, in the experiment on TgAMA1 (HBS pH 7.5, single experiment), the “Molar Ratio (RON2/AMA1)” value was 1.17 ± 0.02 and the ΔH is -4.7 ± 0.1 kcal/mol.

In experiment [2], “PfRON2D3 thioredoxin fusion (Plasmodium falciparum RON2 domain 3 peptide)” came in with a Kd of 1400 nM and a stoichiometry N of 1.

“TRX: thioredoxin, injected as a negative control”: the “binding of TRX negative control” value with TgAMA1 or TgAMA1ΔDIIloop is “no detectable binding”.

“TgRON2D3 thioredoxin fusion (Toxoplasma gondii RON2 domain 3 peptide) (from UniProt B6KV60 1297-1332)”: in experiment [1], the dissociation constant Kd was below 5.8 nM.

Turning to “TgRON2D3: RON2 domain 3 peptide of T. gondii, thioredoxin fusion produced in E. coli BL21 (DIVQHMEDIGGAPPVSCVTNEILGVTCAPQAIAKAT; cysteine pairing not given here; also: thioredoxin fusion, end not given here, His tag, end not given here)”, in the experiment on TgAMA1ΔDIIloop [3], the “binding to TgAMA1ΔDIIloop (in words)” value is “bound both TgRON2D3 and EtRON2D3 with high affinity”; the Kd was determined as 3.6 ± 3 nM; the “-TΔS” value was determined as 10.6 kcal/mol; the ΔG was -11.6 kcal/mol. Moreover, in the experiment with TgAMA1ΔDIIloop [3], the “Molar Ratio (RON2/AMA1)” value is on record as 1.01 ± 0.01 and the ΔH is given as -22.2 ± 0.2 kcal/mol. Further, in the experiment on TgAMA1 (HBS pH 7.5), the “binding to TgAMA1 (in words)” value is “bound both TgRON2D3 and EtRON2D3 but only the former with high affinity”; the “-TΔS” value came out at 5.9 kcal/mol; the ΔG was -11.2 kcal/mol. For the same substance, the Kd at TgAMA1 (HBS (20 mM HEPES pH 7.5, 150 mM NaCl), one-site model, single experiment, representative of at least two independent experiments, read-out: Kd) amounted to 5.8 ± 2.8 nM. Further, in the experiment with TgAMA1 (HBS pH 7.5, single experiment), the “Molar Ratio (RON2/AMA1)” value was determined as 1.00 ± 0.01 and the ΔH was -17.1 ± 0.2 kcal/mol.

In the case of “TgRON2L1D3 thioredoxin fusion (Toxoplasma gondii RON2L1 domain 3 peptide)”, in experiment [2], the Kd turned out to be 46000 nM and the stoichiometry N is 1.

In experiment [2], “TgRON2L2D3 thioredoxin fusion (Toxoplasma gondii RON2L2 domain 3 peptide)” yielded a Kd of 6000 nM and a stoichiometry N of 1.

As usually defined, the Kd is the constant that tells how readily two partners part at equilibrium. For orientation: stoichiometry N means the number of molecules, sites or subunits per partner or assembly.

These data come from publication PMC4425356, “An Extended Surface Loop on Toxoplasma gondii Apical Membrane Antigen 1 (AMA1) Governs Ligand Binding Selectivity” (PLoS ONE, 2015).
